Test results from ChEMBL document CHEMBL3392975, “Design and nuclear magnetic resonance (NMR) structure determination of the second extracellular immunoglobulin tyrosine kinase A (TrkAIg2) domain construct for binding site elucidation in drug discovery” (J Med Chem, 2015).

Legend:
[1] = biological target: T1, High affinity nerve growth factor receptor (Homo sapiens, UniProt P04629); assay: Binding affinity to F303 residue of human recombinant TrkAIg2-NMR construct expressed in Escherichia coli by 1H-15N HSQC NMR spectroscopy
T1 sequence (P04629 whole entry): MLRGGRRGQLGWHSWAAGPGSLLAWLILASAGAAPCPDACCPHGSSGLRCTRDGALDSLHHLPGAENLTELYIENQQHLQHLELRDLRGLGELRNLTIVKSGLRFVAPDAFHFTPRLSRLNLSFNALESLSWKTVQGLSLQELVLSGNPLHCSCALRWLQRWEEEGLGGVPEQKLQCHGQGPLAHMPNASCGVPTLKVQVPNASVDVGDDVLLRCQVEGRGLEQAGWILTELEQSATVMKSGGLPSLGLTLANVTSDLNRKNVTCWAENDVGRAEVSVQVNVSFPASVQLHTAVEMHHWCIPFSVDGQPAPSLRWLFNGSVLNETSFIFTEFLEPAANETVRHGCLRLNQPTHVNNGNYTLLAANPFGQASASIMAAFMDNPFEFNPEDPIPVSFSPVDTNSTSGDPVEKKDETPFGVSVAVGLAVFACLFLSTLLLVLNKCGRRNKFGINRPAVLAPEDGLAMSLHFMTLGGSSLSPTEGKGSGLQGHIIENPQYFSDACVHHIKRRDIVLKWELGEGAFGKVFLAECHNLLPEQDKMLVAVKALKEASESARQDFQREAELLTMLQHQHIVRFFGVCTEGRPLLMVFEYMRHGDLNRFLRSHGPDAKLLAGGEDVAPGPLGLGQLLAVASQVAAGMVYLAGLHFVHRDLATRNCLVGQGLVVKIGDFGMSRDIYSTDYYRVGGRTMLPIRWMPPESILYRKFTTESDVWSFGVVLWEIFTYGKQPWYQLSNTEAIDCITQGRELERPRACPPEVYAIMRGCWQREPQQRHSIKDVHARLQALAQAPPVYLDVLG

[2] = biological target: T1, High affinity nerve growth factor receptor; assay: Antagonist activity at full length glycosylated human TrkA expressed in HEKN3S cells assessed as reduction in NGF-induced ERK 42/44 phosphorylation incubated for 5 mins by automated immunofluorescence assay; format: cell-based
[3] = biological target: T1, High affinity nerve growth factor receptor; assay: Binding affinity to T292 residue of human recombinant TrkAIg2-NMR construct expressed in Escherichia coli by 1H-15N HSQC NMR spectroscopy
[4] = biological target: T1, High affinity nerve growth factor receptor; assay: Binding affinity to V305 residue of human recombinant TrkAIg2-NMR construct expressed in Escherichia coli by 1H-15N HSQC NMR spectroscopy
[5] = biological target: T1, High affinity nerve growth factor receptor; assay: Displacement of [125I]NGF from full length human TrkA expressed in HEKN3S cells by gamma counting based radioligand competition assay; format: cell-based
[6] = biological target: T1, High affinity nerve growth factor receptor; assay: Binding affinity to C345 residue of human recombinant TrkAIg2-NMR construct expressed in Escherichia coli by 1H-15N HSQC NMR spectroscopy

SMILES: CN(C)CCC=C1c2ccccc2CCc2ccccc21 [AMITRIPTYLINE]
- Kd [1]: 2200 µM
- EC50 [2]: 86 µM
- Kd [3]: 1800 µM
- Kd [4]: 2100 µM
- IC50 [5]: 60 µM
- Kd [6]: 2100 µM
